Earlier results in patent EP1358311B1, “CLEANING COMPOSITIONS” (Unilever N.V., priority 2001, dated 2002).

Conditions: for Water Solubility (g/100g): at 20°C, other common materials, listed by contrast

Row | Structure (SMILES) | Water Solubility (g/100g) | Water Solubility (grams/100 grams water) (saturated solution in 100 grams of deionised water at 20°C, highly water-soluble materials)
1 | O=BO[O-].[Na+] [Sodium perborate anhydrous] | 3.7 g/100g | –
2 | O=P(O)(O)OP(=O)(O)OP(=O)(O)O [Sodium tripolyphosphate anhydrous] | 15 g/100g | –
3 | NC(N)=O [Urea] | – | >100 grams/100 grams water
